The target of data set [1] is human OATP1B1 (Homo sapiens (Human), UniProt Q9Y6L6). The data set can be described thus: In Vitro Inhibition Assessment with Human OATP1B1 Transporter. The settings on record: HEK293-OATP1B1 cells, probe substrate pravastatin. Type of data set: in vitro ADME. The method, boiled down: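 HEK293-OATP1B1 and mock cells were preincubated 15 min with compound in HBSS. They were then coincubated 5 min with compound plus pravastatin (0.4% DMSO final), and intracellular substrate was quantified by LC-MS/MS. Mock-corrected uptake relative to solvent gave percentage activity, from which IC50 was fitted.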
Chain of human OATP1B1 (Q9Y6L6 whole entry): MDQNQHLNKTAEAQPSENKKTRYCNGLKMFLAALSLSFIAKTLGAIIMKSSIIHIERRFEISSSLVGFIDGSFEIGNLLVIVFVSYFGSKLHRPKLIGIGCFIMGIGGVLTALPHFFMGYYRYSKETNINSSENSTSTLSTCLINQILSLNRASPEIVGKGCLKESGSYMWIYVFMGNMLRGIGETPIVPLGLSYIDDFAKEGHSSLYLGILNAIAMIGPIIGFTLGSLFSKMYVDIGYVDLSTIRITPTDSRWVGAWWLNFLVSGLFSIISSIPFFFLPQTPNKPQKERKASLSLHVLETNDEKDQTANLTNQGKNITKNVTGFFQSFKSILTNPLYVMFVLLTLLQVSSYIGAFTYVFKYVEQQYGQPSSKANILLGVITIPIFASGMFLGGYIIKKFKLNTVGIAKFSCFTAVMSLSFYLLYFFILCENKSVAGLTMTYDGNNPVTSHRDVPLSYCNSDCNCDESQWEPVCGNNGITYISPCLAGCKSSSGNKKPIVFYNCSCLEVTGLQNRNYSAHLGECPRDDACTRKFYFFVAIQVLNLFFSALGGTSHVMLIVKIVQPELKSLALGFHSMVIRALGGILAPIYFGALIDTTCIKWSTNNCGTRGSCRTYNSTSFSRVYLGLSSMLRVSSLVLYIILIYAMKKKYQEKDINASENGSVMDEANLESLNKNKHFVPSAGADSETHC

Data set [2] has as its system HepG2 cells. In words: F1P Cell-Based Assay (EC50), 13C6-fructose-1-phosphate in HepG2 cells (cell culture medium or 50% human plasma).
The target of data set [3] is KHK-C expressed in NRK-52E cells (Homo sapiens (Human), UniProt P50053). In words: KHK-C Cell-based Assay (EC50), NRK CTG, fructose-mediated ATP-depletion.
Chain of KHK-C expressed in NRK-52E cells (P50053 whole entry): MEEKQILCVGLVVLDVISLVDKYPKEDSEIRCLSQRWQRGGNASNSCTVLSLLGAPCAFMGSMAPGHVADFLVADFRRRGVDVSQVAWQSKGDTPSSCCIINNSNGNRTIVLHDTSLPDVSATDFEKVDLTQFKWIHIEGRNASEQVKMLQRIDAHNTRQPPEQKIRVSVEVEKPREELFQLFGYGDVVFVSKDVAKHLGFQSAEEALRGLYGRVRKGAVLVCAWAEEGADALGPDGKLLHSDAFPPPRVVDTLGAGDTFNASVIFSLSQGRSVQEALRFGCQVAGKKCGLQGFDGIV
Data set [4] has as its target human KHK-A (Homo sapiens (Human), UniProt P50053). The data set can be described thus: KHK Biochemical Assay (IC50), ADP-Glo, KHK-A. The settings on record: average of at least two separate assays. The method, boiled down: (§1)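 His-tagged enzyme expressed in BL21 (DE3), Ni-NTA purified. Compounds, serially diluted 1:3 in DMSO, pre-incubated 30 min with enzyme in 50 mM Hepes pH 7.4, 140 mM KCl, 5 mM MgCl2, 0.01% Triton-X, then ATP and fructose added; 4 h at room temperature. ADP formation read by ADP-Glo luminescence.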
Background: ADP-Glo turns the ADP formed in a reaction into a luminescent signal.

In data set [5] the target is human KHK-C (Homo sapiens (Human), UniProt P50053). The data set can be described thus: KHK Biochemical Assay (IC50), ADP-Glo, KHK-C. The settings on record: average of at least two separate assays. Summed up:
as §1

Data set [6] in a line: pKa analysis by capillary electrophoresis (pKa PRO Analyzer, co-solvent method). Type of data set: physicochemical. The settings on record: co-solvent method (60% to 30% methanol buffers); for pKa: methanol/aqueous co-solvent buffers. The method, boiled down: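 Capillary electrophoresis by the co-solvent method, with 100 μM compound and 1% DMSO in 2 mM HCl or NaOH at 60% methanol.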

[7] abbreviates: Homo sapiens, HepG2, HepG2 cells, 50% human plasma, read-out: F1P 50% HP EC50.
Where [8] appears, read: Homo sapiens, HepG2, read-out: F1P 10% FBS EC50, HepG2 cells, cell culture medium (10% FBS).
Where [9] appears, read: pH range 1.7-11.2, read-out: 1st pKa.
[10] abbreviates: pH range 1.7-11.2, read-out: 2nd pKa.

Read-outs that look alike come from different tables or passages of the source.

The source of these data is patent US12410160B2 (Gilead Sciences, Inc., priority 2021, dated 2025).

Chain of human KHK-C (P50053 whole entry): as above
Chain of human KHK-A (P50053 other isoform, or with tags, fused parts or gaps): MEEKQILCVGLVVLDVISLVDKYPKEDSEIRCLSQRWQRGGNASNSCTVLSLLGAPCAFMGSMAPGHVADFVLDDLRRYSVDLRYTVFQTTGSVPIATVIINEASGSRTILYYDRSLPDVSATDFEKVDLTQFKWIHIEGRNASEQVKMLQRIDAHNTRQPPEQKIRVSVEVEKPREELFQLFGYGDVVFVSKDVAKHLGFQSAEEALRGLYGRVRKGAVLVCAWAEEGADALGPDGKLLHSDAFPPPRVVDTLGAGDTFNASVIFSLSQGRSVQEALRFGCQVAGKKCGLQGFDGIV

One may read the IC50 as the concentration that inhibits the measured activity by half. The low end stands for inhibition by little substance, the high end for a need for much substance. The EC50 is the concentration that produces a half-maximal response. By pKa is commonly meant the pH at which an ionisable group is half protonated. As for `COc1ccc(-c2nc(N3C[C@@H](O)[C@@H]3C)nc3c2CCC3(F)F)cc1[S@@](C)(=N)=O` (single isomer, unassigned) [Example 495], the half-maximal inhibitory concentration (IC50) is above 40000 nM in data set [1], 0.7 nM in data set [4] and 1.5 nM in data set [5]. For the same molecule, the EC50 in data set [2] (setting [7]) turned out to be 2.3 nM; in data set [2] (setting [8]) it was 1.1 nM; in data set [3], 16 nM. Besides, the pKa in data set [6] (setting [9]) was 2.5.
For `C[C@H]1[C@H](O)CN1c1nc(-c2ccc3c(c2)S(=O)(=O)CCNC3)c2c(n1)C(F)(F)CC2` [Example 489], the half-inhibitory concentration (IC50) in data set [1] is 2670 nM; in data set [4], 5.2 nM; in data set [5], 3.5 nM. Also, the EC50 in data set [2] (setting [7]) was 20.2 nM; in data set [2] (setting [8]) it was 16.5 nM. For the same molecule, the pKa in data set [6] (setting [9]) was determined as 5.3.
With `C[C@H]1[C@H](O)CN1c1nc(-c2ccc(C3(N)CC(F)(F)C3)cc2)c2c(n1)C(F)(F)CC2` [Example 646, (2S,3R)-1-[4-[4-(1-amino-3,3-difluoro-cyclobutyl)phenyl]-7,7-difluoro-5,6-dihydrocyclopenta[d]pyrimidin-2-yl]-2-methyl-azetidin-3-ol], the figures for the 50% inhibitory concentration (IC50) in data set [1] and in data set [5] were 5010 nM and 2.7 nM, respectively. Also, the EC50 in data set [2] (setting [7]) stood at 22.4 nM; in data set [2] (setting [8]) it was 14.3 nM; in data set [3], 7.4 nM. Also, in data set [6] (setting [9]), the pKa stood at 6.6.
On to `NC1(c2ccc(-c3nc(N4CC[C@@H]4C(F)F)nc4c3CCC4(F)F)cc2)COC1` (single isomer, unassigned) [Example 687], for which the IC50 amounted to 6550 nM in data set [1], 2.8 nM in data set [4] and 1.2 nM in data set [5]. In addition, the EC50 is 7.6 nM in data set [2] (Homo sapiens, HepG2, read-out: F1P 10% FBS EC50); 14.6 nM in data set [2] (Homo sapiens, HepG2, read-out: F1P 50% HP EC50); 6.2 nM in data set [3]. For the same molecule, the pKa in data set [6] (setting [9]) was determined as 6.
Regarding `C[C@H]1[C@H](O)CN1c1nc(-c2cccc([S@@](C)(=N)=O)c2)c2c(n1)C(F)(F)CC2` (single isomer, unassigned) [Example 492], the IC50 turned out to be 31700 nM in data set [1], 12.2 nM in data set [4] and 9 nM in data set [5]. Further, the results for the half-maximal effective concentration (EC50) in data set [2] (setting [7]), in data set [2] (setting [8]) and in data set [3] were 22.2 nM, 20.7 nM and 41.8 nM, respectively. Further, the pKa in data set [6] (setting [9]) was determined as 2.1.
Consider `C[C@H]1CCN1c1nc2c(c(-c3ccc(CN)s3)n1)CCC2` [Example 459, [5-[2-[(2S)-2-methylazetidin-1-yl]-6,7-dihydro-5H-cyclopenta[d]pyrimidin-4-yl]-2-thienyl]methanamine], for which the values for the half-maximal inhibitory concentration (IC50) in data set [1], in data set [4] and in data set [5] were 13200 nM, 11.1 nM and 6.6 nM, respectively. Also, the EC50 in data set [3] is 42.1 nM. Also, the pKa amounted to 4.27 in data set [6] (setting [9]) and 8.65 in data set [6] (setting [10]).
With `C[C@H]1CCN1c1nc2c(c(-c3ccc4c(=O)[nH]ccc4c3)n1)CCC2` [Example 364, 6-[2-[(2S)-2-methylazetidin-1-yl]-6,7-dihydro-5H-cyclopenta[d]pyrimidin-4-yl]-2H-isoquinolin-1-one], the half-maximal inhibitory concentration (IC50) in data set [1] was determined as 38.9 nM; in data set [4] (ADP-Glo) it was 10 nM; in data set [5] (ADP-Glo) it was 3.3 nM. The molecule also showed an EC50 in data set [3] of 13.1 nM. Further, the pKa in data set [6] (setting [9]) was determined as 4.32.
`C[C@H]1[C@H](O)CN1c1nc(-c2ccc(C3(N)CS(=O)(=O)C3)cc2)c2c(n1)C(F)(F)CC2` [Example 491]: the 50% inhibitory concentration (IC50) in data set [1] came out at 36000 nM; in data set [4], 24.2 nM; in data set [5], 2 nM. In addition, the concentration for a half-maximal effect (EC50) was found to be 26.2 nM in data set [2] (setting [7]), 31.9 nM in data set [2] (setting [8]) and 35.8 nM in data set [3]. Besides, the pKa in data set [6] (setting [9]) came out at 4.5.
With `NC1(c2ccc(-c3nc(N4CC[C@@H]4CF)nc4c3CCC4(F)F)cc2)COC1` [Example 471, (R)-3-(4-(7,7-difluoro-2-(2-(fluoromethyl)azetidin-1-yl)-6,7-dihydro-5H-cyclopenta[d]pyrimidin-4-yl)phenyl)oxetan-3-amine], the figures for the IC50 in data set [1], in data set [4] and in data set [5] were 23300 nM, 7 nM and 2 nM, respectively. Also, the concentration for a half-maximal effect (EC50) in data set [2] (setting [7]) was determined as 13.2 nM; in data set [2] (setting [8]), 8.4 nM; in data set [3], 6.4 nM. Moreover, in data set [6] (setting [9]), the pKa was 6.1.
Consider `C[C@H]1CCN1c1nc2c(c(-c3cccc(C(N)=O)c3)n1)CCC2` [Example 8, (S)-3-(2-(2-methylazetidin-1-yl)-6,7-dihydro-5H-cyclopenta[d]pyrimidin-4-yl)benzamide], for which the results for the IC50 in data set [1], in data set [4] (ADP-Glo) and in data set [5] (ADP-Glo) were 1320 nM, 38.8 nM and 48.1 nM, respectively. A half-maximal effect in data set [3] (EC50) was put at 128 nM. Also, in data set [6] (setting [9]), the pKa was 4.38.
Regarding `C[C@H]1[C@H](O)CN1c1nc(-c2ccc3c(c2)OC[C@@H]3NS(C)(=O)=O)c2c(n1)C(F)(F)CC2` [Example 466, N—((R)-6-(7,7-difluoro-2-((2S,3R)-3-hydroxy-2-methylazetidin-1-yl)-6,7-dihydro-5H-cyclopenta[d]pyrimidin-4-yl)-2,3-dihydrobenzofuran-3-yl)methanesulfonamide], the results for the half-maximal inhibitory concentration (IC50) in data set [1], in data set [4] and in data set [5] were 3010 nM, 4 nM and 0.5 nM, respectively. Further, the results for the EC50 in data set [2] (setting [7]), in data set [2] (setting [8]) and in data set [3] were 20.5 nM, 7.3 nM and 11.4 nM, respectively. For the same molecule, the pKa in data set [6] (setting [9]) came to 10.3.
On to `COc1ccc(-c2nc(N3C[C@@H](O)[C@@H]3C)nc3c2CCC3(F)F)cc1S(N)(=O)=O` [Example 763, 5-(7,7-difluoro-2-((2S,3R)-3-hydroxy-2-methylazetidin-1-yl)-6,7-dihydro-5H-cyclopenta[d]pyrimidin-4-yl)-2-methoxybenzenesulfonamide], for which the results for the 50% inhibitory concentration (IC50) in data set [1], in data set [4] and in data set [5] were 2570 nM, 3.6 nM and 3 nM, respectively. The EC50 turned out to be 8 nM in data set [2] (setting [7]) and 6.9 nM in data set [2] (setting [8]). In data set [6] (setting [9]), the pKa turned out to be 1.7.
Take `C[C@H]1[C@H](F)CN1c1nc(-c2ccc([C@@H](N)CS(C)(=O)=O)cc2)c2c(n1)C(F)(F)CC2` (single isomer, unassigned) [Example 789]: the 50% inhibitory concentration (IC50) in data set [1] turned out to be 19700 nM; in data set [4], 12.5 nM; in data set [5] it was 3.9 nM. Also, the concentration giving a half-maximal response (EC50) in data set [2] (HepG2 cells, 50% human plasma, read-out: F1P 50% HP EC50) is 30.6 nM; in data set [2] (read-out: F1P 10% FBS EC50, HepG2 cells, cell culture medium (10% FBS)), 22.7 nM. Besides, the “1st pKa” value in data set [6] (pH range 1.7-11.2) turned out to be 6.4.
For `N#C[C@H]1CCN1c1nc(-c2ccc(C3(N)COC3)cc2)c2c(n1)C(F)(F)CC2` [Example 711, (R)-1-(4-(4-(3-aminooxetan-3-yl)phenyl)-7,7-difluoro-6,7-dihydro-5H-cyclopenta[d]pyrimidin-2-yl)azetidine-2-carbonitrile], the IC50 in data set [1] came out at 12800 nM; in data set [5] it was 6.1 nM. Also, the concentration for a half-maximal effect (EC50) came to 33.7 nM in data set [2] (setting [7]), 28.2 nM in data set [2] (setting [8]) and 35.2 nM in data set [3]. Also, the pKa in data set [6] (setting [9]) was found to be 6.3.
Regarding `O=S1(=O)CCNCc2ccc(-c3nc(N4CC[C@@H]4CF)nc4c3CCC4(F)F)cc21` [Example 490, (R)-8-(7,7-difluoro-2-(2-(fluoromethyl)azetidin-1-yl)-6,7-dihydro-5H-cyclopenta[d]pyrimidin-4-yl)-2,3,4,5-tetrahydrobenzo[f][1,4]thiazepine 1,1-dioxide], the concentration for half-maximal inhibition (IC50) in data set [1] was determined as 939 nM; in data set [4] it was 4.6 nM; in data set [5], 1.2 nM. In addition, the EC50 in data set [2] (setting [7]) came to 19.3 nM; in data set [2] (setting [8]) it was 9.3 nM. In data set [6] (setting [9]), the pKa is 5.5.
For the molecule `C[C@H]1CCN1c1nc2c(c(-c3ccc(CN)cc3)n1)CCC2` [Example 188, [4-[2-[(2S)-2-methylazetidin-1-yl]-6,7-dihydro-5H-cyclopenta[d]pyrimidin-4-yl]phenyl]methanamine], the values for the half-inhibitory concentration (IC50) in data set [1], in data set [4] (ADP-Glo) and in data set [5] (ADP-Glo) were 10200 nM, 4.2 nM and 2.1 nM, respectively. The response in data set [3] was half-maximal at 177 nM (EC50). In addition, the pKa in data set [6] (setting [9]) was found to be 4.27; in data set [6] (setting [10]) it was 9.27.
`C[C@H]1CCN1c1nc2c(c(-c3ccc4c(N)nccc4c3)n1)CCC2` [Example 378, 6-[2-[(2S)-2-methylazetidin-1-yl]-6,7-dihydro-5H-cyclopenta[d]pyrimidin-4-yl]isoquinolin-1-amine]: the IC50 in data set [1] turned out to be 1690 nM; in data set [4] (ADP-Glo), 3.4 nM; in data set [5] (ADP-Glo), 1 nM. The molecule also had a 50% effective concentration (EC50) in data set [3] of 7.7 nM. For the same molecule, the pKa in data set [6] (setting [9]) is 3.29; in data set [6] (setting [10]), 6.64.
